Results on five compounds are retold here after ChEMBL document CHEMBL1201862, “PubChem BioAssay data set” (2004).

Molecules are shown by their SMILES. Counter-ions that a name gives are not always drawn. The source made the active and inactive calls.

In assay [1] the target is T1, Sentrin-specific protease 8 (Homo sapiens, UniProt Q96LD8).
T1 sequence (Q96LD8 whole entry): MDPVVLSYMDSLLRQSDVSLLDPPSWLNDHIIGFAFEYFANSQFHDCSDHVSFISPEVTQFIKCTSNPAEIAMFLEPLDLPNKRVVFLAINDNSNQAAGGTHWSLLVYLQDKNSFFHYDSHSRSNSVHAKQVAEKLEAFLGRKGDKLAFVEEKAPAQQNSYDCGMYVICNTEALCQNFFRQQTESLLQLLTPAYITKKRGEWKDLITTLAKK
Type of assay: functional.

Assay [2] is described as follows: Luminescence Cell-Based Dose Confirmation HTS to Identify Activators of 5'UTR Stem-Loop Driven Alpha-Synuclein mRNA Translation in H4 Neuroglioblastoma Cells. [Related pubchem assays: 1829 (Project Summary), 1814 (Primary HTS)]. Type of assay: functional.
The subject of a further assay is H4. In words: Luminescence Cell-Based Dose Response HTS to Identify Activators of 5'UTR Stem-Loop Driven Prion Protein mRNA Translation in H4 Neuroglioblastoma Cells. [Related pubchem assays: 1829 (Project Summary), 1814 (Primary HTS)]. Type of assay: functional. The settings on record: Homo sapiens.
The target of assay [3] is T2, Aryl hydrocarbon receptor (Homo sapiens, UniProt P35869).
T2 sequence (P35869 whole entry): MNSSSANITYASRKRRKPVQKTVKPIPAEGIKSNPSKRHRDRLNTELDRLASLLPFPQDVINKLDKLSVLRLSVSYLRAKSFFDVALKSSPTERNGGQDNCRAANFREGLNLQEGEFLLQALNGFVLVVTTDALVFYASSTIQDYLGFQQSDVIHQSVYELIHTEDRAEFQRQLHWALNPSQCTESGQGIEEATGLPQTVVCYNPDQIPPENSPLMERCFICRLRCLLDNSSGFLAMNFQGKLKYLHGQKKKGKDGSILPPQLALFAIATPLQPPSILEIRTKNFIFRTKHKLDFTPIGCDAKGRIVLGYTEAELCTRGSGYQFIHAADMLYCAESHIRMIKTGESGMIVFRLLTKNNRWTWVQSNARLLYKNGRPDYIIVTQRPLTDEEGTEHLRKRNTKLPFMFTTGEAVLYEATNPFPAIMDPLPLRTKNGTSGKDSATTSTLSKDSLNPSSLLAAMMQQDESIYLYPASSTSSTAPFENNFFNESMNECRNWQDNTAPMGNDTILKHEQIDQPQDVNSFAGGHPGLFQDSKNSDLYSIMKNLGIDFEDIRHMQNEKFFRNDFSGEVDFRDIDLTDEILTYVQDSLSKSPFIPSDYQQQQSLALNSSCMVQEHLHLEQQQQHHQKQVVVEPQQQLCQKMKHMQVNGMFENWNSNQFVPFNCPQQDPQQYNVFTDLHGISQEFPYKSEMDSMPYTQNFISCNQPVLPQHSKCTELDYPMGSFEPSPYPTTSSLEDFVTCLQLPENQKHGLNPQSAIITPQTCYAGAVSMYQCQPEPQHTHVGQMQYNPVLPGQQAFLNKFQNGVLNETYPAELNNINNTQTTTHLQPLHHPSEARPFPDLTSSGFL
The assay can be described thus: Luminescence-based cell-based high throughput dose response assay for activators of the Aryl Hydrocarbon Receptor (AHR). [Related pubchem assays: 2796 (Primary screen (AHR activators in singlicate)), 2845 (Confirmation screen (AHR activators in triplicate)), 434939 (Counterscreen (PXR activators in triplicate)), 2804 (Summary (AHR activators))]. Type of assay: ADME.

In assay [4] the target is T1, Sentrin-specific protease 8. Type of assay: functional. The source holds these as a separate data set.
The nature of assay [5]: Luminescence Cell-Based Dose Response HTS to Identify Activators of Luciferase Translation or Activity in H4 […] Cells. [Related pubchem assays: 1829 (Project Summary), 1814 (Primary HTS)]. Type of assay: functional.
Assay [6] deals with HEK293. In words: cells. The settings on record: Homo sapiens.
Assay [7] is described as follows: Vero E6 cell cytotoxicity, dose response, cytotoxicity control for non-replicating M. tuberculosis project, secondary assay (AID 492998). The settings on record: Vero C1008. Format: functional, VeroE6.
The next assay concerns INS1. In words: INS-1E survival protection against cytokine death – cell-based, luminescence, retest, dose response (AID 449756).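 Further: cell death triggered by IL-1 beta plus TNF-alpha plus IFN-gamma mixture; protective hits raise ATP signal compared with cytokine alone wells.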 Format: functional. The settings on record: Rattus norvegicus.
Assay [8] can be described thus: reduction of Shn3 3'UTR-driven luciferase in osteoblasts – cell-based, Clone20 osteoblasts, firefly luciferase, cherry-picked, dose response (AID 624132).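 Further: firefly luciferase luminescence from reporter carrying the Shn3 3'UTR in osteoblasts.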 Type of assay: functional.
Assay [9] in a line: loss of viability in HepG2 cells – cell-based, CellTiter-Glo, cherry-picked, cytotoxicity control for Shn3 inhibitor project, dose response (AID 624134). Type of assay: functional. In general terms: ATP-based viability assays read luminescence as a measure of living cells.
Assay [10] in a line: non-specific 3'UTR reporter inhibition in Clone20-Shn3RL – cell-based, Renilla luciferase, cherry-picked, counter-screen for Shn3 inhibitor project, dose response (AID 624133). Format: functional. In general terms: Counterscreens check selectivity or assay interference.
A short description of assay [11]: THP-1 cell cytotoxicity, dose response, cytotoxicity control for non-replicating M. tuberculosis project (AID 489025). Type of assay: functional.
Another assay concerns the target T3, Protein RecA (Mycobacterium tuberculosis, UniProt P9WHJ3).
T3 sequence (P9WHJ3 whole entry): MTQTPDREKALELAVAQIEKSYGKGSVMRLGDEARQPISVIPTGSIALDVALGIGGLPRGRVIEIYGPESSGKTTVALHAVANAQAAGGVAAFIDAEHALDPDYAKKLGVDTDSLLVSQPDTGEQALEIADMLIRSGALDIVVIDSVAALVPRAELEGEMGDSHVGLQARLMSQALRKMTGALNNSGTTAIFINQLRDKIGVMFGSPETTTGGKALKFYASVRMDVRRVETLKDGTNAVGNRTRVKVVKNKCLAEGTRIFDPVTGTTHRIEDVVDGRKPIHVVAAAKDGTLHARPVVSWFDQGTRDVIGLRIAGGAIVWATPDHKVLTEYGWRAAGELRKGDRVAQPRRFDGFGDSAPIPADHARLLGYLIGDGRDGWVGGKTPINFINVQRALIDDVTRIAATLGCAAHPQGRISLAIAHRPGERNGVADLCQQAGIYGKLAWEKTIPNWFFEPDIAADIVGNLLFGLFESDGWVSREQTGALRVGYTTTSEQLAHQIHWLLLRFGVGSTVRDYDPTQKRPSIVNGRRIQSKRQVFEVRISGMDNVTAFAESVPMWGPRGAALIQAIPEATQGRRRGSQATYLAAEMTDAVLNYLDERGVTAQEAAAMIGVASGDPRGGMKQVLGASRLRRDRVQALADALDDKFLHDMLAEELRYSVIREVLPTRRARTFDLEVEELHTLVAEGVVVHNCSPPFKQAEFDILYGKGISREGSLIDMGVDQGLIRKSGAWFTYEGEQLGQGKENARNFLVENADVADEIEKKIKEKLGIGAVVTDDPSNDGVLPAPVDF
The assay can be described thus: Fluorescence Cell-Free Homogeneous Dose Retest to Identify Inhibitors of RecA-Intein Splicing Activity. [Related pubchem assays (depositor defined):AID2097, AID2223, AID489010, AID492950]. Type of assay: functional.

The nature of assay [12]: Fluorescence-based cell-based high throughput dose response assay for inhibitors of the interaction of nucleotide-binding oligomerization domain containing 2 (NOD2) and the receptor-interacting serine-threonine kinase 2 (RIPK2). Format: functional. The settings on record: Homo sapiens.
Assay [13] addresses T4, Sphingosine 1-phosphate receptor 4 (Homo sapiens, UniProt O95977).
T4 sequence (O95977 whole entry): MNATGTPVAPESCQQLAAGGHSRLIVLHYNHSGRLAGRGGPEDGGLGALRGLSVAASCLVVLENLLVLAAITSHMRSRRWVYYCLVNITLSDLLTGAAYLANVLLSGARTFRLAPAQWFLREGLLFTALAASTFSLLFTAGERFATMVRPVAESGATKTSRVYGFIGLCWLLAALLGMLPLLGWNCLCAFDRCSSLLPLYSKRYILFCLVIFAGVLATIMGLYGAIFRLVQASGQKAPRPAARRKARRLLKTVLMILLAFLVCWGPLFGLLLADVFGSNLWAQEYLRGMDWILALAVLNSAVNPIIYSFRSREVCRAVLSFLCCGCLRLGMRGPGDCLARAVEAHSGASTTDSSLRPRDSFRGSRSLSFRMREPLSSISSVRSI
The assay can be described thus: Fluorescence dose response cell-based high throughput screening assay for antagonists of the Sphingosine 1-Phosphate Receptor 4 (S1P4). [Related pubchem assays: 1524 (Confirmation in triplicates.), 1510 (Primary screen.)]. Type of assay: functional.

Assay [14] can be described thus: HepG2 cell cytotoxicity, dose response, cytotoxicity control for non-replicating M. tuberculosis project (AID 489018). Format: functional. Particulars: Mycobacterium tuberculosis.
A short description of a further assay: cells. Format: functional.
The target in assay [15] is Sphingosine 1-phosphate receptor 1 (Homo sapiens, UniProt P21453). Type of assay: functional.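 Further: Tango beta-arrestin reporter U2OS cells stimulated with S1P near its EC80; inhibitor potency meaning antagonism of receptor activation by the natural agonist.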
Assay [16] addresses T5, Replicative DNA helicase DnaB (Mycobacterium tuberculosis, UniProt P9WMR3).
T5 sequence (P9WMR3 whole entry): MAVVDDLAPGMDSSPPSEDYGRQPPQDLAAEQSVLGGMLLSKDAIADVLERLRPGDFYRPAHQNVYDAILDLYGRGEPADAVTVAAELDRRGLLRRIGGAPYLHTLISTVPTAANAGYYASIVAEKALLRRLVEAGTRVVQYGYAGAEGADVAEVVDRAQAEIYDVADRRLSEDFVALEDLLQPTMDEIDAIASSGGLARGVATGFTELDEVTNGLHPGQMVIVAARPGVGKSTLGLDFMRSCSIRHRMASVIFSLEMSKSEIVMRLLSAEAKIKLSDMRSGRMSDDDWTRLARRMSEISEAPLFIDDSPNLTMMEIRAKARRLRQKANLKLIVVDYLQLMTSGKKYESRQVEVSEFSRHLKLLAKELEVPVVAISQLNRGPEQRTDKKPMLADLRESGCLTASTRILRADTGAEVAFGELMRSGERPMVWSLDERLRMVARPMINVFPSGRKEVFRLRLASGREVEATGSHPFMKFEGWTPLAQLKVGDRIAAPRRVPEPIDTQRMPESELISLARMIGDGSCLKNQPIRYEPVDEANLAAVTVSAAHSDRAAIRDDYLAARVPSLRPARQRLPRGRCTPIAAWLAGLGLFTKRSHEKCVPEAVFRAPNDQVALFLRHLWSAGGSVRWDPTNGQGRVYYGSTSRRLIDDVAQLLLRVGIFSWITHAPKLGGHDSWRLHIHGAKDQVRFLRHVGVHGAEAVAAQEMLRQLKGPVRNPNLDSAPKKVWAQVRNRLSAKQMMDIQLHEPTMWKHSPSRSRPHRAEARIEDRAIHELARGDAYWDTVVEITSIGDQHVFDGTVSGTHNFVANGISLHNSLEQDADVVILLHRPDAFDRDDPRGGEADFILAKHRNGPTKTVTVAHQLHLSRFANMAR
In words: DnaB intein splicing inhibitors, dose response, biochemical, cell-free fluorescence (AID 449749). Type of assay: functional.

For a further assay, the target named is Beta Lactamase (Pseudomonas aeruginosa, UniProt Q932Y6). The assay can be described thus: BLA reporter interference, concentration series – BLA reporter cells, FRET fluorescence, artefact control for NOD2-RIPK2 interaction inhibitor project, dose response (AID 651552). Format: functional, cell-based.
The test system of assay [17] is HEK293. The assay can be described thus: cells. Particulars: Homo sapiens. The source holds these as a separate data set.
The next assay has as its system H9c2. The assay can be described thus: cells. Format: functional, cell-based. Particulars: Rattus norvegicus, H9c2, Myocardium.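 Further: confirmatory concentration-response retest of ultra-high-throughput screening hits for modulation of myocardial damage; cell death induced by hydrogen peroxide oxidative stress; compound pretreatment for 60 min then peroxide exposure for 2 h; potency is for protecting the cells against peroxide damage rather than for killing them.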
The target of assay [18] is Arf-GAP with SH3 domain, ANK repeat and PH domain-containing protein 1 (Homo sapiens, UniProt Q9ULH1). Type of assay: functional.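 Further: biochemical fluorescence polarization dose–response screen measuring inhibition of ASAP1; ASAP1 GAP domain stimulating GTP hydrolysis by truncated human ARF1.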
A short description of assay [19]: Counterscreen for inhibitors of Trypanosoma brucei methionyl tRNA synthetase (MetRS): Luminescence-based cell-based high throughput dose response assay to identify compounds that are cytotoxic to Jurkat human T lymphocyte cells. Type of assay: functional.
Another assay has as its target Mu-type opioid receptor (Homo sapiens, UniProt P35372). Format: functional, cell-based.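 Further: U2OS cells with beta-arrestin recruitment to OPRM1 by beta-gal complementation.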

Chain of Arf-GAP with SH3 domain, ANK repeat and PH domain-containing protein 1 (Q9ULH1 whole entry, the tested form may be a part): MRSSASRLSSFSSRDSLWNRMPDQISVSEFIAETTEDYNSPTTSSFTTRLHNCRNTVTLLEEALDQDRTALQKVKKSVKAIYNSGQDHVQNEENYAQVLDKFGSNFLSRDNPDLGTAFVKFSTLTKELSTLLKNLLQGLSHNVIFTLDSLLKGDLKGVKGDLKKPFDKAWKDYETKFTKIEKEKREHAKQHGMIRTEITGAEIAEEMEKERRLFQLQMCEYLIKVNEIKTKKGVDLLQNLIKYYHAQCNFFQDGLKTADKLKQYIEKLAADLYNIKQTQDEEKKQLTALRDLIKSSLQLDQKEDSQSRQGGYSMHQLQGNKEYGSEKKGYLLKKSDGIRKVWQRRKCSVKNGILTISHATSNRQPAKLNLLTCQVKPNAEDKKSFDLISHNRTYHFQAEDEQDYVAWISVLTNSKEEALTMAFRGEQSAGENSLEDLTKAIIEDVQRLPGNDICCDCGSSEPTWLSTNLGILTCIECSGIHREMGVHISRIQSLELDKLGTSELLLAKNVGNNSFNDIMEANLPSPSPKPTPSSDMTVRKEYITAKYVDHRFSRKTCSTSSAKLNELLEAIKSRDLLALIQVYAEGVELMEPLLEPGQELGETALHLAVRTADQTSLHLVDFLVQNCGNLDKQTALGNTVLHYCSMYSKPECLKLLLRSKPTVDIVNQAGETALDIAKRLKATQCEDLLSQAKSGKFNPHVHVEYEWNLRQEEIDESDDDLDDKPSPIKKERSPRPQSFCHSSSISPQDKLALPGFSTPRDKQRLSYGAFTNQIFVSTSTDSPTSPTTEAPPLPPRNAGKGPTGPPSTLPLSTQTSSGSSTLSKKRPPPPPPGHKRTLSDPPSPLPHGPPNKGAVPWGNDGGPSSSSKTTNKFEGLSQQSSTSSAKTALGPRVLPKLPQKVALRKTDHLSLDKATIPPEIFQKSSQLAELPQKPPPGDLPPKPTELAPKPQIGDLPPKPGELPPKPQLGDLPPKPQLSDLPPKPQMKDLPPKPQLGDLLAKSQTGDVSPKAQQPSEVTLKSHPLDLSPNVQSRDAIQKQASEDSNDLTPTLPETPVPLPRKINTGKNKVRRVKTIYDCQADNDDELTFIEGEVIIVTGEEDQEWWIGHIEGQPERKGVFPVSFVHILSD
Chain of Beta Lactamase (Q932Y6 whole entry): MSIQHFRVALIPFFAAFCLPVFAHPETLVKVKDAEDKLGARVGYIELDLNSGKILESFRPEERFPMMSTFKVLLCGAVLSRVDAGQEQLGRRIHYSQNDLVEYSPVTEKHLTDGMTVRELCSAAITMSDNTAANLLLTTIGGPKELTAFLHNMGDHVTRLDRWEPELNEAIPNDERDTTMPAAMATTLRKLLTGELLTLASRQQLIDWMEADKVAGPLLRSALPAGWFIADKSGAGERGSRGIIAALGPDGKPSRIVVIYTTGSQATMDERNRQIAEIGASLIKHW
Chain of Mu-type opioid receptor (P35372 whole entry): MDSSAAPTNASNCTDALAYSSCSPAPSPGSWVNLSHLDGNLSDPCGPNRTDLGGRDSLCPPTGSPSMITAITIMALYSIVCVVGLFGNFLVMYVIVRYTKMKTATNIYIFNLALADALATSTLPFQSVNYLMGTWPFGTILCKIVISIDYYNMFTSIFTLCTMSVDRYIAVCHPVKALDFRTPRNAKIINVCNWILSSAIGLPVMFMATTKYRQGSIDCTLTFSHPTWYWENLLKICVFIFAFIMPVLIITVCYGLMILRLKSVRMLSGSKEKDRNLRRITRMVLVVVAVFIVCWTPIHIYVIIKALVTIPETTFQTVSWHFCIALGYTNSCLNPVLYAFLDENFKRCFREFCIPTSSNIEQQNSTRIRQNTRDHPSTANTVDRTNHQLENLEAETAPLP
Chain of Sphingosine 1-phosphate receptor 1 (P21453 whole entry): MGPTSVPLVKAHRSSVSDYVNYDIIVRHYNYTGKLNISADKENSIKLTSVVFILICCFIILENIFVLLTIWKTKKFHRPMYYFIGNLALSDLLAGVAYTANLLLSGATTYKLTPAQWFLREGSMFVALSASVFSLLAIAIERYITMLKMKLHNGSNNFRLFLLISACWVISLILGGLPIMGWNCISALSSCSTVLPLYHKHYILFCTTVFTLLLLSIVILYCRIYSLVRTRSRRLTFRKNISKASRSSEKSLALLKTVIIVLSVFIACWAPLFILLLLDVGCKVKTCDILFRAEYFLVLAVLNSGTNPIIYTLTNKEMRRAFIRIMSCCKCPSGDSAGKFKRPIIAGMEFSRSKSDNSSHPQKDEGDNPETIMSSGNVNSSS

On to `O=C1c2ccccc2-c2nc3ccccc3nc21`, for which the IC50 (as a rule, the point on the concentration scale where inhibition reaches its midpoint) in [1] was 8.84 µM (active); in assay [4], 5.17 µM (active). The concentration giving a half-maximal response (EC50) (usually the concentration at which the effect is half-maximal) in [2] is 0.307 µM (active); in the assay with H4 it was > 120 µM (not active); in assay [3], 1.22 µM (active); in assay [5], 42.2 µM (active).
Regarding `CC1=NNC(=O)/C1=C\c1cn(-c2ccccc2)nc1-c1ccccc1`, the EC50 is > 59.7 µM (inactive) with HEK293 [6], 0.978 µM (active) at Protein RecA and > 59.7 µM (inactive) in the assay with HEK293 [17]. Also, the CC50 (as a rule, the concentration at which the toxic effect on the cells reaches its halfway point) in assay [7] is 10.1 µM (active); in assay [11], 6.16 µM (active); in [14], 13 µM (active). The concentration at half-maximal activity (AC50) (usually the concentration giving half of the maximal activity seen) with INS1 was 7.76 µM (active); in [8], 8.42 µM (active); in [9], 8.9 µM (active); in assay [10], 9.3 µM (active); in [16], 1.92 µM (active). Moreover, the 50% inhibitory concentration (IC50) in assay [12] is 4.43 µM (active); in [13], 2 µM (active); in the assay “cells”, 20.6 µM (active); in [15], 6.83 µM (active); at Beta Lactamase, 49.8 µM (inactive).
For `c1ccc(-c2cc(-c3nnc4sc(-c5ccccn5)nn34)[nH]n2)cc1`, the IC50 with H9c2 was > 79 µM (inactive); in [18] it was 165 µM (inactive).
Turning to `N#Cc1ccccc1CSc1nc2cc(Br)c[nH]c-2n1`, the IC50 in [19] is 83.3 µM (inactive).
With `CC(C)[C@@]1(NC(=O)[C@@H]2C[C@@H]3c4cccc5[nH]cc(c45)C[C@H]3N(C)C2)O[C@@]2(O)[C@@H]3CCCN3C(=O)[C@H](Cc3ccccc3)N2C1=O` [DIHYDROERGOCRISTINE MESYLATE], the EC50 at Mu-type opioid receptor was 92.5 µM (inactive).
